Test results: publication PMC10454728, “A Comparative Study on the Lysosomal Cation Channel TMEM175 Using Automated Whole-Cell Patch-Clamp, Lysosomal Patch-Clamp, and Solid Supported Membrane-Based Electrophysiology: Functional Characterization and High-Throughput Screening Assay Development” (International Journal of Molecular Sciences, 2023)
Where “and” joins values, the source holds several entries; their conditions need not be identical. Identical values can stand only once. Entries after “also recorded” stand apart in the source; their conditions may differ.

Key:
TMEM175 [1] = target: T1, TMEM175 (Homo sapiens, UniProt Q9BSA9); experiment: SSME K+ flux compound assay on purified lysosomes overexpressing TMEM175 (SURFE2R 96SE); format: biochemical; conditions: for Relative current / maximum potentiation, SSME: Imax of dose-response curve, baseline 100%, (50 µM)
T1 sequence (Q9BSA9 1-504): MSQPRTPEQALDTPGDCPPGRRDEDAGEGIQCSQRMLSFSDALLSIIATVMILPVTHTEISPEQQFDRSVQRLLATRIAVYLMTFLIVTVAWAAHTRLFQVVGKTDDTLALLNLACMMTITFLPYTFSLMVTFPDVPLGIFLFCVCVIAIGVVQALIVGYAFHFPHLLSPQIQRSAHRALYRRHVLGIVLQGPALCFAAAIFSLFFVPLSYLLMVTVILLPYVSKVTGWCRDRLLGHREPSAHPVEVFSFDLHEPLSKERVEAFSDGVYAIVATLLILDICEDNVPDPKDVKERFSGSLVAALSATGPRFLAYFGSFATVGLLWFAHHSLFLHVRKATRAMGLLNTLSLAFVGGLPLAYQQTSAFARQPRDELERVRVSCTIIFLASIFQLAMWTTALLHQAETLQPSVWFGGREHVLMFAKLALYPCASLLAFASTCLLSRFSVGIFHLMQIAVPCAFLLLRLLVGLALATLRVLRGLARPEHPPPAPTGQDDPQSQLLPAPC
Description: In brief, compound measurements using SSME are performed in a three-step process (Figure 6B). First, TMEM175-mediated K^+ translocation is measured through 50 mM K^+ concentration jumps. This represents the baseline current of TMEM175 activity (I0). […] Third, the activation through a 50 mM K^+ concentration jump is repeated, this time in the presence of the compound to record the modulated TMEM175 current (I). In this process, each individual sensor of the 96-well sensor plate is only exposed to a single concentration of the compound. The relative current amplitude I/I0 is used as a measure of the compound effect and averaged across sensors.
We applied 50 mM K^+ concentration jumps in the absence and presence of different compound concentrations to derive information about compound effects on K^+ flux through TMEM175; (B) Time dependence of recorded peak current amplitudes for the complete workflow, which involves multiple sequential measurements. […] The recording of each sensor well starts with the application of a control measurement, rinsing non-activating solution across the sensor (baseline recording). Afterwards, we performed three solution exchange measurements from 50 mM NaCl to 50 mM KCl to measure K^+ flux through TMEM175 (baseline TMEM175 current, I0). We then rinsed the sensor with non-activating solution containing the compound at a given concentration, followed by incubation of 15 min to equilibrate the sensors with the compound. Subsequently, the solution exchange from 50 mM NaCl to 50 mM KCl is repeated twice, but in the presence of the given compound concentration to determine the modulated peak current I. Afterwards, we repeated the measurement in the absence of the compound three times (wash-out) to recover the non-modulated TMEM175 current. We subtracted the average artifact current recorded with control lysosomes from I and I0 (Figure 1K), without considering off-target effects of the tested compound. […] Success rates were determined based on the QC criteria provided in the Methods section. […] We determined average values, AVGpos and AVGneg, and standard deviations, SDpos and SDneg, of the recorded peak currents. […] Error bars represent the SEM obtained from automated data analysis using DataControl96, based on variations of the currents obtained with the TMEM175 sample. Each compound concentration was recorded with at least N = 8 sensors. […] Imin was always fixed to 0 for inhibitors or 1 for enhancers, as indicated. […] A total of 50 µL of 0.1 mM octadecanethiol in isopropanol was added to each sensor well, following incubation for 30 min at room temperature to form an alkanethiol monolayer on the sensor surface. Subsequently, the sensors were washed twice with isopropanol and three times with ddH2O, before dry-tapping on a tissue. The subsequent process of sensor coating with lipid and lysosomes was carried out manually for the SURFE^2R N1 and automated with the SURFE^2R 96SE serving as a pipetting robot. In both cases, 1.5 µL of 7.5 mg/mL 1,2-diphytanoyl-sn-glycero-3-phosphocholine (DPhPC) in n-decane was added to the center of the circular gold surface, followed by the addition of 50 µL of non-activating solution to form the SSM. The composition of the non-activating solution was adjusted for each experiment (Table 2). […] SSM-coated 96-well sensor plates were stored at −80 °C before use.

TMEM175 [2] = target: T1, TMEM175; experiment: Whole-cell automated patch-clamp (APC) Cs+ flux assay, SyncroPatch 384i, HEK293 overexpressing TMEM175; format: cell-based
Description: To validate the APC assay, we compared currents between TMEM175-overexpressing cells and control HEK293 UT cells. […] In our compound application protocol, which was used to evaluate compound potencies, we consistently administered tool compounds to assess their impact on TMEM175 activity (Figure 7C).
The voltage protocol generation and data collection were performed with PatchControl384 v1.9.0 and analyzed with DataControl384 v2.2.0. A multi-hole, medium resistance chip with four patch-clamp holes per well was used for recording.
DMSO remained constant at 0.2% and BSA at 0.05% in the external solution throughout the assay, if not stated otherwise.
The voltage protocol applied for the investigation of the tool compounds (Figure 7) consisted of a 500 ms ramp from −80 mV to +80 mV, followed by a 400 ms step from −80 mV to +80 mV before returning to the holding potential of 0 mV (Figure 7B). The maximum outward current amplitude obtained at +80 mV from the ramp section was used for analysis. To investigate the blinded test compounds (Figure 8), an alternative voltage protocol was applied. […] The maximum outward current amplitude obtained at 0 mV from the voltage step section was used for analysis. In both voltage protocols, voltage sweeps were repeated every 10 s and currents sampled at 10 kHz.
The application protocol for agonists consisted of two additions of extracellular physiological solution for a minimum of 3 min, followed by the external application of the test compound for a minimum of 2 min (Figure 7C).
Currents recorded after compound addition were normalized to the baseline current before compound addition, averaged, and plotted over the compound concentration to determine the EC50 and IC50 values.

TMEM175 [3] = conditions: 100 µM, whole-cell configuration, +80 mV; ref [6]; cited from earlier work
TMEM175 [4] = target: T1, TMEM175; experiment: SSME H+ flux assay (pH jumps) on TMEM175 lysosomes (SURFE2R N1); format: biochemical; conditions: corresponding to ~pH 5; read-out: EC50 of H+ influx current vs Δc(H+)
Excerpt: To further investigate the capability of TMEM175 to translocate protons using SSME, we performed H^+ concentration or pH jumps using the SURFE^2R N1. The non-activating solution was set to pH 7.6, defining both the lysosomal and cytosolic pH before the start of the experiment. By exchanging the non-activating for the activating solution, we acidified the cytosolic solution and stimulated H^+ influx through TMEM175 (Figure 5A).
However, the application of pH jumps lead to significant artifact currents of positive magnitude, as observed with the control lysosomes (Figure 5C). These artifacts are a result of protons interacting with the lipid membranes and/or unknown H^+ leak pathways through the lysosomal membrane. To conclude pure TMEM175-related H^+ currents, we subtracted the artifact currents from the currents recorded with the TMEM175 sample. When plotting ΔpH against the artifact-corrected average TMEM175 net H^+ current, we obtain a close-to-linear correlation (Figure 5D).
For comparison with the I/c curve reported for K^+ (Figure 3E), we calculated the difference in H^+ concentration across the lysosomal membrane Δc = cH^out − cH^in, which correlates linearly with the passive H^+ flux J = PH+Δc according to Fick’s law.
We used H^+ concentration or pH jumps to measure H^+ flux through TMEM175. Non-activating solution was set to pH 7.6, while activating solution contained different pH values between pH 7.4 and pH 4.6; (B) Representative current traces induced by pH jumps on lysosomes overexpressing TMEM175. All current traces were recorded with the same sensor, starting from the lowest ΔpH. […] The remaining current mostly reflects the background (artifact) current after full block of TMEM175; (C) Representative current traces from the same experiment on control lysosomes. […] This represents the artifact current also underlying the currents recorded with the TMEM175 sample; (D) SEM and average, artifact-corrected, normalized peak currents from N = 4 sensors, reflecting the H^+ flux through TMEM175, solely driven by the pH gradient. […]

Row | SMILES | Potency in SSME relative to APC (more potent in SSME) (TMEM175 [1]; EC50 APC / EC50 SSME) [fold] | Relative current / maximum potentiation, SSME (TMEM175 [1]) | Relative current / maximum potentiation, SSME (TMEM175 [1]; listed as arachidonic acid) [%] | EC50 (TMEM175 [1]; tool enhancers, K+ flux, 50 mM K+ jump, pH 7.6, 0 mV, artifact-corrected, read-out: Half saturation (EC50), SSME) | Relative current, APC (TMEM175 [2]; enhancer, (30 µM), relative to baseline current (100%)) | EC50 and maximum potentiation in the absence of BSA, APC (TMEM175 [2]; no BSA vs 0.05% BSA) | Maximum potentiation (increase in TMEM175 activity), APC (TMEM175 [2]; standard assay with 0.05% BSA) [%] | EC50 (TMEM175 [2]; tool compounds, Cs+ flux, outward current at +80 mV, 0.05% BSA, read-out: Half saturation (EC50), APC) [µM] | Increase in K+ flux through TMEM175, literature (TMEM175 [3]) [fold] | EC50 (TMEM175 [4]) [µM]
1 | CCCCC/C=C\C/C=C\C/C=C\C/C=C\CCCC(=O)O [Arachidonic Acid, arachidonic acid] | 40 | 168 ± 5% (50 µM) | 168 ± 5 | 2.3 µM and 2.25 µM | 137 ± 6% (30 µM) | did not affect; also recorded: unaltered | 34 | 83 | 14 | 
2 | [H+] [H^+] |  |  |  |  |  |  |  |  |  | 9.5
